One test addresses BRD-3 (Domain 1) (Homo sapiens (Human), UniProt Q15059). Kind of test: AlphaScreen BRD binding assay, BRD-3 (Domain 1). The conditions noted are these: acetyl-histone H4 peptide 2.5 nM, protein 80 nM. Here is the method:
(§1) Biological Characterization Assay Conditions Binding Assay
BRD binding and inhibition was assessed by measuring the interaction of biotinylated acetyl-histone H4 peptide (Anaspec #64989) with the BRD target protein utilising AlphaScreen® technology (Perkin Elmer). In a white 384-well low volume plate (Greiner #784076), 100 nL of compound series in DMSO (0.5% final concentration) was added to the BRD target protein (80 nM final). After 30 min incubation at RT, H4 peptide was added to a final concentration of 2.5 nM. AlphaScreen streptavidin donor beads and AlphaScreen nickel chelate acceptor beads were added to a final concentration of 10 ug/mL each and allowed to incubate in a darkened environment for 1 h at RT. Plates were read on an EnVision plate reader (Perkin Elmer) and IC50's calculated using a four parameter non-linear curve fit.
These conditions are identical for all BRDs screened except BRD2D2 which uses 160 nM protein and 1.25 nM peptide.

Another test has as its target BRD-4 (Domain 1) (Homo sapiens (Human), UniProt O60885). Kind of test: AlphaScreen BRD binding assay, BRD-4 (Domain 1). To be noted: acetyl-histone H4 peptide 2.5 nM, protein 80 nM. Here is the method:
as §1
(§2) AlphaScreen streptavidin donor beads and AlphaScreen nickel chelate acceptor beads were added to a final concentration of 10 ug/mL each and allowed to incubate in a darkened environment for 1 h at RT. Plates were read on an EnVision plate reader (Perkin Elmer) and IC50's calculated using a four parameter non-linear curve fit.

A further test has as its target BRD-4 (Domain 2) (Homo sapiens (Human), UniProt O60885). As to the kind of experiment: AlphaScreen BRD binding assay, BRD-4 (Domain 2). The conditions noted are these: acetyl-histone H4 peptide 2.5 nM, protein 80 nM. Here is the method: as §1, §2
Another test relates to HL-60. Kind of test: Cell proliferation assay (CellTiter-Glo), HL-60. Type of test: cell-based. The conditions noted are these: Homo sapiens, HL-60 cells, 72 h. As to the method: The cells were prepared in the required fashion (suspension or adherent). The cells were initially washed once in the culture medium that they would be finally treated in. Following this 10 ml of the test medium was added and the cells. The mixture was pipetted gently several times.
The cells were counted and then the volume was spun down to the volume necessary for the total number of cells needed. The cells were then resuspended in the appropriate test medium to the desired concentration. In general, the final concentration of non-adherent cells was 2×10^5 cells/ml i.e. 10,000 cells per 50 μ1. Once the desired concentration had been reached, 50 µl of the cells were added to the appropriate wells and the cells were incubated for 72 h at 37° C.
CellTiter-Glo Luminescent Assay (Kit G7571—See Promega's Instruction Manual for Additional Details):
Both reagents were pre-warmed to RT. The buffer was thawed in a 37° C. water bath until it had just completely thawed. It was then left on a bench at RT for at least 30 min.
Following this the substrate and buffer were mixed together. To ensure that the substrate was dissolved, the mixture was inverted several times.
The cell culture plates were removed from the incubator and were then allowed to adjust to RT for at least 30 min.
Afterwards 40 μL of the reagent was added to 100 μL of the culture medium. […] The plates were then incubated for 10 min on the bench. The luminescence could then be read using a luminescence plate reader.

The next test deals with BRD-2 (Domain 1) (Homo sapiens (Human), UniProt P25440). As to the kind of experiment: AlphaScreen BRD binding assay, BRD-2 (Domain 1). The conditions noted are these: acetyl-histone H4 peptide 2.5 nM, protein 80 nM. As to the method: as §1, §2
The target of a further test is BRD-2 (Domain 2) (Homo sapiens (Human), UniProt P25440). As to the kind of experiment: AlphaScreen BRD binding assay, BRD-2 (Domain 2). To be noted: 160 nM protein and 1.25 nM peptide. Here is the method:
as §1, §2

SMILES strings stand for the structures. pIC50: −log10 of the molar value. Where only a bound is given, the exact number is not on record here.

Sequence of BRD-2 (Domain 2) (P25440 344-453): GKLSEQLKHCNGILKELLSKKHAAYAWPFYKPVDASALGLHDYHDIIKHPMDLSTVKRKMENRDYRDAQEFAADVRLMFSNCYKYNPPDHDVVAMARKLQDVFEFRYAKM
Sequence of BRD-2 (Domain 1) (P25440 74-180): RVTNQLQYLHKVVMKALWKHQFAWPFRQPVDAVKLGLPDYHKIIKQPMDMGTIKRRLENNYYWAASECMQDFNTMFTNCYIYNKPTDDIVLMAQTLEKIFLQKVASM
Sequence of BRD-3 (Domain 1) (Q15059 34-140): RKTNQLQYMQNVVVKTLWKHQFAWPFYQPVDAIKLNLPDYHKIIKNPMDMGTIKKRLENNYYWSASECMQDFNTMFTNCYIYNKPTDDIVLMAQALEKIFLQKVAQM

Turning to `Cc1nnn2c1-c1ccc(C(=O)NC(C)c3ccc(F)cc3)cc1N(c1ccc(Cl)cc1)CC2` (stereo in doubt) [Example 33, 7-(4-chlorophenyl)-N—((R)-1-(4-fluorophenyl)ethyl)-1-methyl-6,7-dihydro-5H-benzo[f][1,2,3]triazolo[1,5-d][1,4]diazepine-9-carboxamide], the pIC50 on BRD-3 (Domain 1) is above 7.00.

`Cc1nnn2c1-c1ccccc1N(c1ccccc1)CC2` [Example 5, 1-methyl-7-phenyl-6,7-dihydro-5H-benzo[f][1,2,3]triazolo[1,5-d][1,4]diazepine]: the pIC50 on BRD-4 (Domain 1) and on BRD-4 (Domain 2) was above 7.00 in each case.

Compound `Cc1nnn2c1-c1ccccc1N(c1ccc(Cl)cc1)CC2` [Example 11, 7-(4-chlorophenyl)-1-methyl-6,7-dihydro-5H-benzo[f][1,2,3]triazolo[1,5-d][1,4]diazepine] gave a negative-log IC50 (pIC50) in the test on HL-60 of 5.30 to 6.00.

In the test on HL-60, `Cc1nnn2c1-c1ccc(-c3cnc(N)nc3)cc1N(c1ccc(Cl)cc1)CC2` [Example 12, 5-(7-(4-chlorophenyl)-1-methyl-6,7-dihydro-5H-benzo[f][1,2,3]triazolo[1,5-d][1,4]diazepin-9-yl)pyrimidin-2-amine] gave a pIC50 above 6.00.

For the compound `Cc1nnn2c1-c1ccccc1N(c1ccc(Cl)cc1)C[C@@H]2C` [Example 13, 7-(4-chlorophenyl)-1,5-dimethyl-6,7-dihydro-5H-benzo[f][1,2,3]triazolo[1,5-d][1,4]diazepine], the pIC50 in the test with HL-60 was above 6.00; on BRD-2 (Domain 1) it was above 7.00; at BRD-2 (Domain 2), above 7.00.

As to `Cc1nnn2c1-c1ccc(Br)cc1N(c1ccc(Cl)cc1)CC2C` (centres unmarked) [Example 14, 9-Bromo-7-(4-chlorophenyl)-1,5-dimethyl-6,7-dihydro-5H-benzo[f][1,2,3]triazolo[1,5-d][1,4]diazepine], the pIC50 in the test with HL-60 was above 6.00.

`Cc1nnn2c1-c1ccccc1N(c1ccc(Cl)cc1)C[C@H]2C` [Example 16, (5R)-7-(4-chlorophenyl)-1,5-dimethyl-6,7-dihydro-5H-benzo[f][1,2,3]triazolo[1,5-d][1,4]diazepine]: the pIC50 in the test with HL-60 was above 6.00; on BRD-2 (Domain 1) it was above 7.00; at BRD-2 (Domain 2), above 7.00.

In the case of `Cc1nnn2c1-c1ccc(Cn3cccn3)cc1N(c1ccc(Cl)cc1)CC2` [Example 20, 9-((1H-pyrazol-1-yl)methyl)-7-(4-chlorophenyl)-1-methyl-6,7-dihydro-5H-benzo[f][1,2,3]triazolo[1,5-d][1,4]diazepine], the negative-log IC50 (pIC50) on BRD-4 (Domain 1), at BRD-3 (Domain 1) and at BRD-4 (Domain 2) was above 7.00 in each case.

Regarding `Cc1nnn2c1-c1ccccc1N(c1ccc(Cl)cc1)CC2CCO` (centres unmarked) [Example 21, 2-(7-(4-chlorophenyl)-1-methyl-6,7-dihydro-5H-benzo[f][1,2,3]triazolo[1,5-d][1,4]diazepin-5-yl)ethanol], the pIC50 on BRD-4 (Domain 1) is above 7.00; at BRD-3 (Domain 1) it was above 7.00; with HL-60 it was 5.30 to 6.00; at BRD-2 (Domain 1) it was 6.00 to 7.00; at BRD-2 (Domain 2) it was above 7.00; on BRD-4 (Domain 2), above 7.00.

As for `Cc1nnn2c1-c1ccccc1N(c1cccc(Br)c1)CC2` [Example 22, 7-(3-Bromophenyl)-1-methyl-6,7-dihydro-5H-benzo[f][1,2,3]triazolo[1,5-d][1,4]diazepine], the pIC50 on BRD-4 (Domain 1) is above 7.00; on BRD-3 (Domain 1) it was above 7.00; in the test with HL-60 it was 5.30 to 6.00; on BRD-2 (Domain 1), 6.00 to 7.00; on BRD-2 (Domain 2), above 7.00; on BRD-4 (Domain 2), above 7.00.

In the case of `C=Cc1cccc(N2CCn3nnc(C)c3-c3ccccc32)c1` [Example 23, 1-Methyl-7-(3-vinylphenyl)-6,7-dihydro-5H-benzo[f][1,2,3]triazolo[1,5-d][1,4]diazepine], the pIC50 was above 7.00 on BRD-4 (Domain 1); above 7.00 at BRD-3 (Domain 1); 5.30 to 6.00 in the test on HL-60; 6.00 to 7.00 on BRD-2 (Domain 1); above 7.00 on BRD-2 (Domain 2); above 7.00 at BRD-4 (Domain 2).

As for `Cc1nnn2c1-c1ccccc1N(c1cccc(C(O)CO)c1)CC2` (centres unmarked) [Example 24, 1-(3-(1-methyl-5H-benzo[f][1,2,3]triazolo[1,5-d][1,4]diazepin-7(6H)-yl)phenyl)ethane-1,2-diol], the pIC50 on BRD-4 (Domain 1) was above 7.00; on BRD-3 (Domain 1), above 7.00; in the test with HL-60 it was 5.30 to 6.00; on BRD-2 (Domain 1) it was above 7.00; at BRD-2 (Domain 2), above 7.00; on BRD-4 (Domain 2) it was above 7.00.

On to `FC(F)c1nnn2c1-c1ccccc1N(c1ccc(Cl)cc1)CC2` [Example 29, 7-(4-chlorophenyl)-1-(difluoromethyl)-6,7-dihydro-5H-benzo[f][1,2,3]triazolo[1,5-d][1,4]diazepine], for which the pIC50 was 6.00 to 7.00 on BRD-4 (Domain 1), below 6.00 on BRD-2 (Domain 1), 6.00 to 7.00 on BRD-2 (Domain 2) and 6.00 to 7.00 on BRD-4 (Domain 2).

As for `Cc1nnn2c1-c1ccc(CCN3CCOCC3)cc1N(c1ccc(Cl)cc1)CC2` [Example 30, 4-(2-(7-(4-chlorophenyl)-1-methyl-6,7-dihydro-5H-benzo[f][1,2,3]triazolo[1,5-d][1,4]diazepin-9-yl)ethyl)morpholine], the pIC50 on BRD-4 (Domain 1) is 6.00 to 7.00; on BRD-3 (Domain 1) it was 6.00 to 7.00; in the test on HL-60, 5.30 to 6.00; on BRD-2 (Domain 1) it was 6.00 to 7.00; on BRD-2 (Domain 2), 6.00 to 7.00; at BRD-4 (Domain 2) it was 6.00 to 7.00.

For `Cc1nnn2c1-c1ccc(C(=O)NCc3ccccc3)cc1N(c1ccc(Cl)cc1)CC2` [Example 37, N-benzyl-7-(4-chlorophenyl)-1-methyl-6,7-dihydro-5H-benzo[f][1,2,3]triazolo[1,5-d][1,4]diazepine-9-carboxamide], the negative-log IC50 (pIC50) at BRD-4 (Domain 1) and at BRD-4 (Domain 2) was above 7.00 throughout.

With `Cc1nnn2c1-c1ccc(C(=O)NC(c3ccccc3)c3ccccc3)cc1N(c1ccc(Cl)cc1)CC2` [Example 38, N-benzhydryl-7-(4-chlorophenyl)-1-methyl-6,7-dihydro-5H-benzo[f][1,2,3]triazolo[1,5-d][1,4]diazepine-9-carboxamide], the values for the pIC50 on BRD-3 (Domain 1), on BRD-2 (Domain 1) and at BRD-2 (Domain 2) were above 7.00, 6.00 to 7.00 and above 7.00, respectively.

Turning to `Cc1nnn2c1-c1ccc(C(N)=O)cc1N(c1ccc(Cl)cc1)CC2` [Example 42, 7-(4-chlorophenyl)-1-methyl-6,7-dihydro-5H-benzo[f][1,2,3]triazolo[1,5-d][1,4]diazepine-9-carboxamide], the pIC50 at BRD-4 (Domain 1) and at BRD-4 (Domain 2) was above 7.00 in each case.

For `Cc1nnn2c1-c1ccc(C(=O)NO)cc1N(c1ccc(Cl)cc1)CC2` [Example 44, 7-(4-Chlorophenyl)-N-hydroxy-1-methyl-6,7-dihydro-5H-benzo[f][1,2,3]triazolo[1,5-d][1,4]diazepine-9-carboxamide], the pIC50 on BRD-4 (Domain 1), at BRD-2 (Domain 1), at BRD-2 (Domain 2) and at BRD-4 (Domain 2) was above 7.00 in each case.

For `Cc1nnn2c1-c1ccc(C#N)cc1N(c1ccc(Cl)cc1)CC2` [Example 47, 7-(4-chlorophenyl)-1-methyl-6,7-dihydro-5H-benzo[f][1,2,3]triazolo[1,5-d][1,4]diazepine-9-carbonitrile], the pIC50 at BRD-4 (Domain 1) and on BRD-4 (Domain 2) was above 7.00 throughout.

With `CON(C)C(=O)c1ccc2c(c1)N(c1ccc(Cl)cc1)CCn1nnc(C)c1-2` [Example 48, 7-(4-Chlorophenyl)-N-methoxy-N, 1-dimethyl-6,7-dihydro-5H-benzo[f][1,2,3]triazolo[1,5-d][1,4]diazepine-9-carboxamide], the pIC50 on BRD-4 (Domain 1), at BRD-2 (Domain 1), at BRD-2 (Domain 2) and at BRD-4 (Domain 2) was above 7.00 each time.

Take `Cc1nnn2c1-c1ccc(C(O)C(F)(F)F)cc1N(c1ccc(Cl)cc1)CC2` (centres unmarked) [Example 50, 1-(7-(4-Chlorophenyl)-1-methyl-6,7-dihydro-5H-benzo[f][1,2,3]triazolo[1,5-d][1,4]diazepin-9-yl)-2,2,2-trifluoroethanol]: the negative-log IC50 (pIC50) at BRD-4 (Domain 1) and at BRD-4 (Domain 2) was above 7.00 in each case.

The record behind these values is patent US10167292B2, “Benzodiazepines as bromodomain inhibitors” (Catalyst Therapeutics Pty Ltd, priority 2015, dated 2019).
